43 molecules from patent US7601745B2, “Heterocyclic NF-kB inhibitors” (4SC AG, priority 2004, dated 2009) can be followed below.

In this assay the test system is A549-NF-κB-SEAP reporter cells. Description: Inhibition of NF-κB-induced inflammation ([…] NINA Instant Assay, SEAP reporter). The assay is classed as cell-based. The note with it: for Biological activity (NF-κB inflammation assay, inhibition): TNF-α stimulated reporter cells, test concentration not given. An excerpt:
For the determination of anti-inflammatory activity of the compounds the […]® NINA Instant Assay from Cell Culture Service GmBH was used. This assay is based on recombinant A549-NF-κB-SEAP reporter cells preseeded in 96-well flat bottom plates. As the transfected reportergen for SEAP (secreted embryonic alkaline phosphatase) is under transcriptional control of a NF-κB-responsive element, the expression of this reporter is activated upon stimulation with TNF-α. SEAP secretion into the culture supernatant can be detected by the chemiluminescent substrate CSPD®. Test compounds that inhibit the NF-κB activation show reduced SEAP activity and reduced luminescent readout.
Following 18 h of reactivation at 37° C., 5% CO2 and 90% relative humidity, the cells were incubated with 0.01 up to 100 μM of test compound for 4.5 h before stimulation with 2 ng/ml TNF-α. After stimulation with TNF-α for 22 h endogenous phosphatases were inactivated and CSPD® substrate was supplied for 40 min. SEAP activity then was quantified by measuring luminescence as relative light units (RLU) using a Tecan Ultra reader. Each data point was recorded in quadruplicates and EC50 values were calculated via fitting function and the Microsoft Excel Solver.

Take `NC(=Nc1nc2ccccc2[nH]1)NC(=O)c1csc(NC(=O)Nc2ccccc2OC(F)(F)F)n1` [compound 54]: the “Biological activity (inhibition in the NF-κB inflammation assay)” value is recorded as “+++ (“+++” stands for 90-100% inhibition)”. As to `O=C(c1csc(C2CCN(c3ccccn3)CC2)n1)N1CCN(c2cccc(C(F)(F)F)c2)CC1` [compound 123], the “Biological activity (NF-κB inflammation assay, inhibition)” value (compounds of formula (I)) is recorded as “++ (“++” means 80-90%)”. Consider `N=C(NC(=O)c1csc(N2CCN(Cc3ccccc3)CC2)n1)Nc1nc2ccccc2[nH]1` [compound 30], for which the “Biological activity (inhibition in the NF-κB inflammation assay)” value was “+++ (“+++” stands for 90-100% inhibition)”.

In the case of `O=C(Cc1ccc(F)cc1)N1CCC(c2nc(C(=O)N3CCc4ccccc4C3)cs2)CC1` [compound 163], under “compounds of formula (Ic)”, the “Biological activity (NF-κB inflammation assay, inhibition)” value is on record as “+ (“+” stands for 50-80% inhibition)”. With `Cc1noc(C)c1S(=O)(=O)N1CCC(c2nc(C(=O)N3CCN(c4cccc(C(F)(F)F)c4)CC3)cs2)CC1` [compound 192], the “Biological activity (NF-κB inflammation assay, inhibition)” value (compounds of formula (I)) was “+ (“+” stands for 50-80% inhibition)”. For the molecule `CC(C)(C)OC(=O)N1CCN(c2nc(C(=O)N3CCN(c4cccc(C(F)(F)F)c4)CC3)cs2)CC1` [compound 63], the “Biological activity (NF-κB inflammation assay, inhibition)” value (compounds of formula (II)) is recorded as “++ (“++” means 80-90%)”.

Regarding `O=C(c1csc(C2CCN(Cc3cc(C(F)(F)F)cc(C(F)(F)F)c3)CC2)n1)N1CCN(c2cccc(C(F)(F)F)c2)CC1` [compound 175], the “Biological activity (NF-κB inflammation assay, inhibition)” value (compounds of formula (I)) is recorded as “+ (“+” stands for 50-80% inhibition)”.

Consider `O=C(O)C1=C(C(=O)N2CCC(c3nc(C(=O)N4CCN(c5cccc(C(F)(F)F)c5)CC4)cs3)CC2)CCC1` [compound 188], for which the “Biological activity (NF-κB inflammation assay, inhibition)” value (compounds of formula (I)) is “+ (“+” stands for 50-80% inhibition)”. In the case of `O=C(Nc1ccccc1OC(F)(F)F)N1CCC(c2nc(C(=O)N3CCN(c4cccc(C(F)(F)F)c4)CC3)cs2)CC1` [compound 79], the “Biological activity (NF-κB inflammation assay, inhibition)” value (compounds of formula (Ia)) is “+++ (“+++” stands for 90-100% inhibition)”. In the case of `O=C(CCC1CCCC1)Nc1nc(C(=O)N2CCN(c3cccc(C(F)(F)F)c3)CC2)cs1` [compound 33], the “Biological activity (NF-κB inflammation assay, inhibition)” value (compounds of formula (II)) is given as “+++ (“+++” stands for 90-100% inhibition)”.

Take `O=C(c1csc(C2CCN(C(=O)c3ccccc3OC(F)(F)F)CC2)n1)N1CCN(c2nc3ccccc3n2Cc2ccc(F)cc2)CC1` [compound 98]: the “Biological activity (NF-κB inflammation assay, inhibition)” value (compounds of formula (I)) is given as “+++ (“+++” stands for 90-100% inhibition)”.

On to `O=C(Nc1nc(C(=O)N2CCN(c3cccc(C(F)(F)F)c3)CC2)cs1)c1ccc(C(F)(F)F)c(F)c1` [compound 34], for which the “Biological activity (NF-κB inflammation assay, inhibition)” value (compounds of formula (II)) is on record as “+++ (“+++” stands for 90-100% inhibition)”. In the case of `COc1cc(C(=O)N2CCC(c3nc(C(=O)N4CCN(c5cccc(C(F)(F)F)c5)CC4)cs3)CC2)cc(OC)c1OC` [compound 225], the “Biological activity (NF-κB inflammation assay, inhibition)” value (compounds of formula (I)) is on record as “+ (“+” stands for 50-80% inhibition)”.

With `Cc1sc(C2CCN(C(=O)c3ccccc3OC(F)(F)F)CC2)nc1CC(=O)N1CCN(c2cccc(C(F)(F)F)c2)CC1` [compound 103], the “Biological activity (NF-κB inflammation assay, inhibition)” value (compounds of formula (Ib)) is given as “++ (“++” means 80-90%)”.

Regarding `COc1ccccc1N1CCN(C(=O)c2csc(NC(=O)c3ccccc3OC(F)(F)F)n2)CC1` [compound 44], under “compounds of formula (II)”, the “Biological activity (NF-κB inflammation assay, inhibition)” value is listed as “++ (“++” means 80-90%)”. `COc1cccc(C(=O)N2CCC(c3nc(C(=O)N4CCN(c5cccc(C(F)(F)F)c5)CC4)cs3)CC2)c1` [compound 209]: the “Biological activity (NF-κB inflammation assay, inhibition)” value (compounds of formula (I)) is recorded as “+ (“+” stands for 50-80% inhibition)”.

`O=C(c1csc(C2CCN(C(=O)c3cc4ccccc4s3)CC2)n1)N1CCN(c2cccc(C(F)(F)F)c2)CC1` [compound 213]: for the setting “compounds of formula (I)”, the “Biological activity (NF-κB inflammation assay, inhibition)” value is reported as “++ (“++” means 80-90%)”. Still for that read-out and setting: to `O=C(c1csc(C2CCN(c3ccc(OC(F)(F)F)cc3)CC2)n1)N1CCN(c2cccc(C(F)(F)F)c2)CC1` [compound 154] belongs “+ (“+” stands for 50-80% inhibition)”; to `O=C(c1csc(C2CCN(S(=O)(=O)c3cccs3)CC2)n1)N1CCN(c2cccc(C(F)(F)F)c2)CC1` [compound 194], “+ (“+” stands for 50-80% inhibition)”. Same read-out and setting: next, `O=C(c1csc(C2CCN(C(=O)c3ccccc3OC(F)(F)F)CC2)n1)N1CCN(c2cccc(Cl)c2)CC1` [compound 151]: “+ (“+” stands for 50-80% inhibition)”; `O=C(c1csc(C2CCN(c3ccc4c(c3)OCO4)CC2)n1)N1CCN(c2cccc(C(F)(F)F)c2)CC1` [compound 156]: “+ (“+” stands for 50-80% inhibition)”. Consider `O=C(Nc1cc(F)cc2c1OCCO2)N1CCC(c2nc(C(=O)N3CCN(c4cccc(C(F)(F)F)c4)CC3)cs2)CC1` [compound 74], for which the “Biological activity (NF-κB inflammation assay, inhibition)” value (compounds of formula (Ia)) is “++ (“++” means 80-90%)”. Regarding `Cc1noc(C)c1C(=O)N1CCC(c2nc(C(=O)N3CCN(c4cccc(C(F)(F)F)c4)CC3)cs2)CC1` [compound 219], where the note is “compounds of formula (I)”, the “Biological activity (NF-κB inflammation assay, inhibition)” value was “+ (“+” stands for 50-80% inhibition)”. `O=C(c1csc(C2CCN(c3ccc4c(c3)OCCO4)CC2)n1)N1CCN(c2cccc(C(F)(F)F)c2)CC1` [compound 157]: the “Biological activity (NF-κB inflammation assay, inhibition)” value (compounds of formula (I)) was “+ (“+” stands for 50-80% inhibition)”. Regarding `O=C(Nc1nc2ccc([N+](=O)[O-])cc2[nH]1)c1csc(NC(=O)c2ccccc2OC(F)(F)F)n1` [compound 43], the “Biological activity (inhibition in the NF-κB inflammation assay)” value was “+++ (“+++” stands for 90-100% inhibition)”. Turning to `O=C(O)C1=C(C(=O)N2CCC(c3nc(C(=O)N4CCN(c5cccc(C(F)(F)F)c5)CC4)cs3)CC2)CCCC1` [compound 190], for the setting “compounds of formula (I)”, the “Biological activity (NF-κB inflammation assay, inhibition)” value is recorded as “+ (“+” stands for 50-80% inhibition)”. The same measure, in the same setting: next, `CN(C)c1cccc(C(=O)N2CCC(c3nc(C(=O)N4CCN(c5cccc(C(F)(F)F)c5)CC4)cs3)CC2)c1` [compound 226]: “++ (“++” means 80-90%)”; `O=C(c1csc(C2CCN(Cc3ccncc3)CC2)n1)N1CCN(c2cccc(C(F)(F)F)c2)CC1` [compound 107]: “+ (“+” stands for 50-80% inhibition)”; `O=C(CCC1CCCC1)N1CCC(c2nc(C(=O)N3CCN(c4cccc(C(F)(F)F)c4)CC3)cs2)CC1` [compound 224]: “+ (“+” stands for 50-80% inhibition)”. With `O=C(c1csc(N2CCN(C(=O)c3ccccc3OC(F)(F)F)CC2)n1)N1CCN(c2cccc(C(F)(F)F)c2)CC1` [compound 39], under “compounds of formula (II)”, the “Biological activity (NF-κB inflammation assay, inhibition)” value is given as “+++ (“+++” stands for 90-100% inhibition)”. For the molecule `O=C(Nc1ccc(F)cc1)N1CCC(c2nc(C(=O)N3CCN(c4cccc(C(F)(F)F)c4)CC3)cs2)CC1` [compound 143], under “compounds of formula (Ia)”, the “Biological activity (NF-κB inflammation assay, inhibition)” value was “+ (“+” stands for 50-80% inhibition)”. Take `O=C(c1csc(C2CCN(C(=O)c3ccccc3OC(F)(F)F)CC2)n1)N1CCN(c2ncnc3nc[nH]c23)CC1` [compound 129]: the “Biological activity (NF-κB inflammation assay, inhibition)” value (compounds of formula (I)) is on record as “+ (“+” stands for 50-80% inhibition)”. Still for that read-out and setting: next, `Cc1nnsc1C(=O)N1CCC(c2nc(C(=O)N3CCN(c4cccc(C(F)(F)F)c4)CC3)cs2)CC1` [compound 221]: “+ (“+” stands for 50-80% inhibition)”; `O=C(c1csc(C2CCN(S(=O)(=O)c3c(F)c(F)c(F)c(F)c3F)CC2)n1)N1CCN(c2cccc(C(F)(F)F)c2)CC1` [compound 193]: “+ (“+” stands for 50-80% inhibition)”. Consider `CS(=O)(=O)c1ccc(N2CCC(c3nc(C(=O)N4CCN(c5cccc(C(F)(F)F)c5)CC4)cs3)CC2)cc1` [compound 117], for which the “Biological activity (NF-κB inflammation assay, inhibition)” value (compounds of formula (I)) is “+ (“+” stands for 50-80% inhibition)”. With `O=C(c1cc(C(F)(F)F)cc(C(F)(F)F)c1)N1CCN(c2nc(C(=O)N3CCN(c4cccc(C(F)(F)F)c4)CC3)cs2)CC1` [compound 59], the “Biological activity (NF-κB inflammation assay, inhibition)” value (compounds of formula (II)) was “+ (“+” stands for 50-80% inhibition)”. For the molecule `O=C(Cc1ccc(F)cc1)N1CCC(c2nc(C(=O)N3CCC(n4nnc5ccccc54)CC3)cs2)CC1` [compound 182], where the note is “compounds of formula (I)”, the “Biological activity (NF-κB inflammation assay, inhibition)” value is given as “+ (“+” stands for 50-80% inhibition)”. In the case of `O=C(c1csc(C2CCN(S(=O)(=O)c3cc(C(F)(F)F)cc(C(F)(F)F)c3)CC2)n1)N1CCN(c2cccc(C(F)(F)F)c2)CC1` [compound 201], the “Biological activity (NF-κB inflammation assay, inhibition)” value (compounds of formula (I)) was “++ (“++” means 80-90%)”. Turning to `N#Cc1ccc(CN2CCN(c3nc(C(=O)N4CCN(c5cccc(C(F)(F)F)c5)CC4)cs3)CC2)cc1` [compound 62], where the note is “compounds of formula (II)”, the “Biological activity (NF-κB inflammation assay, inhibition)” value is recorded as “+++ (“+++” stands for 90-100% inhibition)”. `O=C(O)c1ccccc1C(=O)N1CCC(c2nc(C(=O)N3CCN(c4cccc(C(F)(F)F)c4)CC3)cs2)CC1` [compound 185]: the “Biological activity (NF-κB inflammation assay, inhibition)” value (compounds of formula (I)) is listed as “+ (“+” stands for 50-80% inhibition)”. The same measure, in the same setting: next, `COc1cc(N2CCN(C(=O)c3csc(C4CCN(C(=O)c5ccccc5OC(F)(F)F)CC4)n3)CC2)nc(OC)n1` [compound 130]: “+ (“+” stands for 50-80% inhibition)”.

`N#Cc1ccc(C(=O)NCC2CCN(c3nc(C(=O)N4CCN(c5cccc(C(F)(F)F)c5)CC4)cs3)CC2)cc1` [compound 102]: the “Biological activity (NF-κB inflammation assay, inhibition)” value (compounds of formula (II)) was “+ (“+” stands for 50-80% inhibition)”. Regarding `N#Cc1ccc(CN2CCC(c3nc(C(=O)N4CCN(c5cccc(C(F)(F)F)c5)CC4)cs3)CC2)cc1` [compound 166], the “Biological activity (NF-κB inflammation assay, inhibition)” value (compounds of formula (I)) is “+ (“+” stands for 50-80% inhibition)”.
